In PMC8617031, “Development of a BCL-xL and BCL-2 dual degrader with improved anti-leukemic activity,” (Nature Communications, 2021):
Where “and” joins values, the source holds several entries; their conditions need not be identical. Equal entries are not always repeated.

How the values were obtained:
[1] = target: T1, His-tagged BCL-xL (Homo sapiens, UniProt Q07817); experiment: AlphaScreen competitive binary binding, BCL-xL (biotin-BAD peptide)
T1 construct: purchased Sigma-Aldrich SRP0187
In short: (§1)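 His-tagged BCL-xL (0.5 nM) with 2 nM biotin-BAD peptide, or BCL-2 (1 nM) with 10 nM biotin-BIM peptide, was incubated 2 h with serially diluted compound in HEPES pH 7.5 buffer containing NaCl, BSA and Tween-80. AlphaScreen signal came from His-acceptor and streptavidin-donor beads at 20 µg/ml each. Ki was fitted by competitive binding using measured Kd per protein–peptide pair.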

[2] = target: T2, His-tagged BCL-2 (Homo sapiens, UniProt P10415); experiment: AlphaScreen competitive binary binding, BCL-2 (biotin-BIM peptide)
T2 construct: purchased Sigma-Aldrich SRP0186
T2 sequence (P10415 whole entry): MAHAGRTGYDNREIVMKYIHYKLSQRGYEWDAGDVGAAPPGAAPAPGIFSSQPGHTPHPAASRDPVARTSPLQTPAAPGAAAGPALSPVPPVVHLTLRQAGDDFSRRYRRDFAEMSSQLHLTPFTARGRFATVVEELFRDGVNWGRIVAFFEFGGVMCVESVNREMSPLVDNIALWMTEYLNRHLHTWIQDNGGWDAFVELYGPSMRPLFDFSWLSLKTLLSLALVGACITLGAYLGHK
In short: as §1

[3] = target: T3, BCL-xL (Homo sapiens, UniProt Q07817); experiment: BCL-xL degradation by immunoblot in Kasumi-1 cells; format: cell-based; settings: Fig. 7b; for BCL-xL level, bar graph (0 = 100): two replicate columns
T3 construct: endogenous in cells
T3 sequence (Q07817 whole entry): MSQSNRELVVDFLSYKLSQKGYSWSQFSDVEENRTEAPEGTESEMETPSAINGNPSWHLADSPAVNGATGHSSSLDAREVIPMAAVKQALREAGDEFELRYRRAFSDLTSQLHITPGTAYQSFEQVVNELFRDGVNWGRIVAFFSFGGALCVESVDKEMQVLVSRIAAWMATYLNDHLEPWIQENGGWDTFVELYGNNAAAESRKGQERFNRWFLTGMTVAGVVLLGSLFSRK
Procedure: Tubulin was used as an equal loading control. […] For the viability assays, the data are presented as mean ± s.d. from three replicate cell cultures in a representative experiment. Similar results were also observed in two additional independent experiments. d Representative immunoblot analyses of Kasumi-1 cells 16 h after treatment as indicated. […] Data are representative of two independent experiments. The dotted line represents the value from DMSO-treated cells. Source data are provided as a Source data file.
Cells were collected, washed once with ice-cold phosphate-buffered saline, pH 7.2 (PBS, cat. no. 20012027; Thermo Fisher Scientific) and lysed in RIPA lysis buffer (Cat. No. BP-115DG, Boston Bio Products, Ashland, MA, USA) supplemented with protease and phosphatase inhibitor cocktails (Cat. No. PPC1010, Sigma-Aldrich, St. Louis, MO, USA) through sonication. The samples were centrifuged at 14,000 r.p.m. for 5 min and the supernatants were transferred into a new tube. The protein concentration in the supernatants was determined using the Pierce BCA protein Assay kit (cat. no. 23225, Thermo Fisher Scientific). The protein concentration was normalized, and the samples were reduced in 4× Laemmli’s SDS-sample buffer (cat. no. BP-110R, Boston Bio Products) and denatured at 95 °C for 5 min. An equal amount of protein samples (20–40 μg per lane) were resolved using precast 4–20% Tris-glycine gels (Mini-PROTEAN TGX, cat. no. 456–1094, Bio-Rad), and resolved proteins were transferred onto 0.2-µm pore size polyvinylidene difluoride (PVDF) blotting membranes (cat. no. LC2002, Thermo Fisher Scientific) using mini trans-blot electrophoretic transfer cell (Bio-Rad). The membranes were blocked with non-fat dry milk (5% wt/vol) in 1× Tris-buffered saline-Tween-20 (TBST, cat. no. J77500, Affymetrix) for 1 h at room temperature, and were subsequently probed with primary antibodies at a predetermined optimal concentration in non-fat dry milk (5% wt/vol in TBST) overnight at 4 °C. The membranes were washed three times (5 min each) in TBST and then incubated with horse radish peroxidase (HRP)-conjugated secondary antibodies for 1 h at room temperature. Following sufficient washing with TBST, the membranes were exposed with chemiluminescent HRP substrate (cat. no. WBKLS0500, MilliporeSigma), and the signal was detected using the ChemiDoc MP Imaging System (Bio-Rad) and quantified using the ImageJ (v1.53a) software from NIH.

[4] = AlphaScreen, Supplementary Fig. 6

T1 sequence (Q07817 whole entry): as above

Structure (SMILES): Cc1ncsc1-c1ccc([C@H](C)NC(=O)[C@@H]2C[C@@H](O)CN2C(=O)[C@@H](NC(=O)CCCCCCC(=O)N2CCN(C[C@]3(C)CCC(c4ccc(Cl)cc4)=C(CN4CCN(c5ccc(C(=O)NS(=O)(=O)c6ccc(N[C@H](CCN7CCOCC7)CSc7ccccc7)c(S(=O)(=O)C(F)(F)F)c6)cc5)CC4)C3)CC2)C(C)(C)C)cc1 [753b]
- binary binding affinity to BCL-xL (in words) [1, 4]: much weaker than that of the warhead ABT263
- IC50 ([1]; BCL-xL Rep-1): 25.6 nM
- Ki ([1]; BCL-xL Rep-1): 1.15 nM
- Alpha signal (raw counts) ([1]; BCL-xL Rep-1, plate row B, 5 uM): 34683 and 41080
- Alpha signal (raw counts) ([1]; BCL-xL Rep-1, plate row D, 0.3125 uM): 104729 and 120739
- Alpha signal (raw counts) ([1]; BCL-xL Rep-1, plate row E, 0.078125 uM): 342247 and 341354
- Alpha signal (raw counts) ([1]; BCL-xL Rep-1, plate row F, 0.0195312 uM): 676907 and 757834
- Alpha signal (raw counts) ([1]; BCL-xL Rep-1, plate row G, 0.00488281 uM): 979745 and 1069221
- Alpha signal (raw counts) ([1]; BCL-xL Rep-1, plate row H, 0.0012207 uM): 1220627 and 1147140
- Alpha signal (raw counts) ([1]; BCL-xL Rep-1, plate row I, 0.000305176 uM): 1208908 and 1239363
- Alpha signal (raw counts) ([1]; BCL-xL Rep-1, plate row J, 7.62939e-5 uM): 1272719 and 1257225
- Alpha signal (raw counts) ([1]; BCL-xL Rep-1, plate row K, 1.90735e-5 uM): 1178982 and 1221697
- Alpha signal (raw counts) ([1]; BCL-xL Rep-2, 7.62939e-5 uM): 1287481 and 1327839
- Alpha signal (raw counts) ([1]; BCL-xL Rep-2, plate row B, 5 uM): 27681 and 27423
- Alpha signal (raw counts) ([1]; BCL-xL Rep-2, plate row C, 1.25 uM): 19946 and 33165
- Alpha signal (raw counts) ([1]; BCL-xL Rep-2, plate row D, 0.3125 uM): 104103 and 115603
- Alpha signal (raw counts) ([1]; BCL-xL Rep-2, plate row E, 0.078125 uM): 336015 and 412856
- Alpha signal (raw counts) ([1]; BCL-xL Rep-2, plate row F, 0.0195312 uM): 814066 and 879407
- Alpha signal (raw counts) ([1]; BCL-xL Rep-2, plate row G, 0.00488281 uM): 1170961 and 1327234
- Alpha signal (raw counts) ([1]; BCL-xL Rep-2, plate row H, 0.0012207 uM): 1347085 and 1401728
- Alpha signal (raw counts) ([1]; BCL-xL Rep-2, plate row I, 0.000305176 uM): 1445114 and 1473085
- Alpha signal (raw counts) ([1]; BCL-xL Rep-2, plate row K, 1.90735e-5 uM): 1348563 and 1319629
- Ki ([1]; BCL-xL, mean of the two replicate values (line without label)): 1.31 nM
- Ki ([1]; BCL-xL, second value (line without label below Rep-1, apparently Rep-2)): 1.48 nM
- binary binding affinity to BCL-2 (in words) [2, 4]: much weaker than that of the warhead ABT263
- Alpha signal (raw counts) ([2]; BCL-2 Rep-2, 0.00488281 uM): 394963 and 403008
- Alpha signal (raw counts) ([2]; BCL-2 Rep-2, plate row B, 5 uM): 11331 and 13334
- Alpha signal (raw counts) ([2]; BCL-2 Rep-2, plate row C, 1.25 uM): 13467 and 22674
- Alpha signal (raw counts) ([2]; BCL-2 Rep-2, plate row D, 0.3125 uM): 16676 and 24219
- Alpha signal (raw counts) ([2]; BCL-2 Rep-2, plate row E, 0.078125 uM): 24600 and 21594
- Alpha signal (raw counts) ([2]; BCL-2 Rep-2, plate row F, 0.0195312 uM): 68045
- Alpha signal (raw counts) ([2]; BCL-2 Rep-2, plate row F, 0.0195312 uM, listed as 753B): 74511
- Alpha signal (raw counts) ([2]; BCL-2 Rep-2, plate row H, 0.0012207 uM): 630958 and 595808
- Alpha signal (raw counts) ([2]; BCL-2 Rep-2, plate row I, 0.000305176 uM): 751084 and 777257
- Alpha signal (raw counts) ([2]; BCL-2 Rep-2, plate row J, 7.62939e-5 uM): 760517 and 786817
- Alpha signal (raw counts) ([2]; BCL-2 Rep-2, plate row K, 1.90735e-5 uM): 880286 and 989418
- BCL-xL degradation in Kasumi-1 cells (in words) ([3]; Kasumi-1 cells, 16 h, compared with DT2216): more potent BCL-xL degradation
- BCL-xL level, bar graph (0 = 100) ([3]; concentration 0.01): 38 and 35
- BCL-xL level, bar graph (0 = 100) ([3]; concentration 0.03): 15 and 18
- BCL-xL level, bar graph (0 = 100) ([3]; concentration 0.1): 8 and 6
- BCL-xL level, bar graph (0 = 100) ([3]; concentration 0.3): 7 and 5
- BCL-xL level, bar graph (0 = 100) ([3]; concentration 1): 6 and 5
